Results as given in the supplement of paper PMC10307832.

Legend:
Assay in all cases: relative viability (nuclei count vs DMSO), 5 days (fraction); higher = more cells survive
EPLC-272H = test system: EPLC-272H
In short: (§1)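 Cells from lung cancer lines were seeded into 1536-well plates and, one day later, dosed by pin tool. Treatments were either a single drug or a fixed dose of an anchor drug with five library-drug doses (not always all listed) in √10 steps. After 5 days, nuclei were stained in a one-step fixation (final 0.05% Triton X-100, 1% formaldehyde, 1 ug/ml Hoechst) and counted on 4× images, and relative viability is the treated-to-vehicle nuclei ratio, as the median of duplicate plates.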

H3255 = test system: H3255
In short: as §1

HARA = test system: HARA
In short: as §1

LC-2-ad = test system: LC-2-ad
In short: as §1

LOU-NH91 = test system: LOU-NH91
In short: as §1

NCI-H1650 = test system: NCI-H1650
In short: as §1

NCI-H1651 = test system: NCI-H1651
In short: as §1

NCI-H1975 = test system: NCI-H1975
In short: as §1

NCI-H2009 = test system: NCI-H2009
In short: as §1

NCI-H2023 = test system: NCI-H2023
In short: as §1

NCI-H2085 = test system: NCI-H2085
In short: as §1

NCI-H2087 = test system: NCI-H2087
In short: as §1

NCI-H2170 = test system: NCI-H2170
In short: as §1

NCI-H2228 = test system: NCI-H2228
In short: as §1

NCI-H23 = test system: NCI-H23
In short: as §1

NCI-H441 = test system: NCI-H441
In short: as §1

NCI-H650 = test system: NCI-H650
In short: as §1

NCI-H727 = test system: NCI-H727
In short: as §1

NCI-H838 = test system: NCI-H838
In short: as §1

PC-3 [JPC-3] = test system: PC-3 [JPC-3]
In short: as §1

SW 1573 = test system: SW 1573
In short: as §1

SW 900 = test system: SW 900
In short: as §1

UMC-11 = test system: UMC-11
In short: as §1

In the case of `CCNC(=O)c1noc(-c2cc(C(C)C)c(O)cc2O)c1-c1ccc(CN2CCOCC2)cc1` [Luminespib] + Cc1nc(Nc2ncc(C(=O)Nc3c(C)cccc3Cl)s2)cc(N2CCN(CCO)CC2)n1 [Dasatinib] (partner 0.075 µM), the relative viability (EPLC-272H; first compound 0.002 µM) is reported as 0.365, the relative viability (EPLC-272H; first compound 0.006325 µM) is reported as 0.349 and the relative viability (EPLC-272H; first compound 0.06325 µM) is reported as 0.35. For the same compound, the relative viability (EPLC-272H; first compound 0.2 µM) was 0.0778, the relative viability (H3255; first compound 0.002 µM) was 0.375 and the relative viability (H3255; first compound 0.006325 µM) was 0.311. The relative viability (H3255; first compound 0.06325 µM) was 0.406, the relative viability (H3255; first compound 0.2 µM) was 0.197 and the relative viability (HARA; first compound 0.002 µM) was 0.224. The relative viability (HARA; first compound 0.006325 µM) was 0.279, the relative viability (HARA; first compound 0.02 µM) was 0.205 and the relative viability (HARA; first compound 0.06325 µM) was 0.0633. For the same compound, the relative viability (HARA; first compound 0.2 µM) was 0.0774, the relative viability (LC-2-ad; first compound 0.002 µM) was 0.583 and the relative viability (LC-2-ad; first compound 0.006325 µM) was 0.567. It also gave a relative viability (LC-2-ad; first compound 0.02 µM) of 0.447, a relative viability (LC-2-ad; first compound 0.06325 µM) of 0.142 and a relative viability (LC-2-ad; first compound 0.2 µM) of 0.16. For the same compound, the relative viability (LOU-NH91; first compound 0.002 µM) was 0.517, the relative viability (LOU-NH91; first compound 0.006325 µM) was 0.543 and the relative viability (LOU-NH91; first compound 0.02 µM) was 0.388. It also gave a relative viability (LOU-NH91; first compound 0.06325 µM) of 0.258, a relative viability (LOU-NH91; first compound 0.2 µM) of 0.29 and a relative viability (NCI-H1650; first compound 0.002 µM) of 0.326. For the same compound, the relative viability (NCI-H1650; first compound 0.006325 µM) was 0.252, the relative viability (NCI-H1650; first compound 0.02 µM) was 0.162 and the relative viability (NCI-H1650; first compound 0.06325 µM) was 0.192. For the same compound, the relative viability (NCI-H1650; first compound 0.2 µM) was 0.168, the relative viability (NCI-H1651; first compound 0.002 µM) was 0.352 and the relative viability (NCI-H1651; first compound 0.006325 µM) was 0.433. The relative viability (NCI-H1651; first compound 0.02 µM) was 0.331, the relative viability (NCI-H1651; first compound 0.06325 µM) was 0.132 and the relative viability (NCI-H1651; first compound 0.2 µM) was 0.107. For the same compound, the relative viability (NCI-H1975; first compound 0.002 µM) was 0.382, the relative viability (NCI-H1975; first compound 0.006325 µM) was 0.347 and the relative viability (NCI-H1975; first compound 0.02 µM) was 0.14. It also gave a relative viability (NCI-H1975; first compound 0.06325 µM) of 0.093, a relative viability (NCI-H1975; first compound 0.2 µM) of 0.0892 and a relative viability (NCI-H2009; first compound 0.002 µM) of 0.342. It also gave a relative viability (NCI-H2009; first compound 0.006325 µM) of 0.251, a relative viability (NCI-H2009; first compound 0.02 µM) of 0.222 and a relative viability (NCI-H2009; first compound 0.06325 µM) of 0.0645. For the same compound, the relative viability (NCI-H2009; first compound 0.2 µM) was 0.0808, the relative viability (NCI-H2023; first compound 0.002 µM) was 0.589 and the relative viability (NCI-H2023; first compound 0.006325 µM) was 0.525. The relative viability (NCI-H2023; first compound 0.02 µM) was 0.198, the relative viability (NCI-H2023; first compound 0.06325 µM) was 0.0548 and the relative viability (NCI-H2023; first compound 0.2 µM) was 0.0529. It also gave a relative viability (NCI-H2085; first compound 0.002 µM) of 0.219, a relative viability (NCI-H2085; first compound 0.006325 µM) of 0.254 and a relative viability (NCI-H2085; first compound 0.02 µM) of 0.207. It also gave a relative viability (NCI-H2085; first compound 0.06325 µM) of 0.277, a relative viability (NCI-H2085; first compound 0.2 µM) of 0.266 and a relative viability (NCI-H2087; first compound 0.002 µM) of 0.757. It also gave a relative viability (NCI-H2087; first compound 0.006325 µM) of 0.441, a relative viability (NCI-H2087; first compound 0.02 µM) of 0.317 and a relative viability (NCI-H2087; first compound 0.06325 µM) of 0.102. For the same compound, the relative viability (NCI-H2087; first compound 0.2 µM) was 0.086, the relative viability (NCI-H2170; first compound 0.002 µM) was 0.503 and the relative viability (NCI-H2170; first compound 0.006325 µM) was 0.578. For the same compound, the relative viability (NCI-H2170; first compound 0.02 µM) was 0.308, the relative viability (NCI-H2170; first compound 0.06325 µM) was 0.163 and the relative viability (NCI-H2170; first compound 0.2 µM) was 0.106. The relative viability (NCI-H2228; first compound 0.002 µM) was 0.423, the relative viability (NCI-H2228; first compound 0.006325 µM) was 0.387 and the relative viability (NCI-H2228; first compound 0.02 µM) was 0.103. It also gave a relative viability (NCI-H2228; first compound 0.06325 µM) of 0.096, a relative viability (NCI-H2228; first compound 0.2 µM) of 0.101 and a relative viability (NCI-H23; first compound 0.002 µM) of 0.839. For the same compound, the relative viability (NCI-H23; first compound 0.006325 µM) was 0.765, the relative viability (NCI-H23; first compound 0.02 µM) was 0.517 and the relative viability (NCI-H23; first compound 0.06325 µM) was 0.118. The relative viability (NCI-H23; first compound 0.2 µM) was 0.13, the relative viability (NCI-H441; first compound 0.002 µM) was 0.579 and the relative viability (NCI-H441; first compound 0.006325 µM) was 0.649. It also gave a relative viability (NCI-H441; first compound 0.02 µM) of 0.329, a relative viability (NCI-H441; first compound 0.06325 µM) of 0.132 and a relative viability (NCI-H441; first compound 0.2 µM) of 0.114. For the same compound, the relative viability (NCI-H650; first compound 0.002 µM) was 0.468, the relative viability (NCI-H650; first compound 0.006325 µM) was 0.417 and the relative viability (NCI-H650; first compound 0.02 µM) was 0.359. The relative viability (NCI-H650; first compound 0.06325 µM) was 0.112, the relative viability (NCI-H650; first compound 0.2 µM) was 0.115 and the relative viability (NCI-H727; first compound 0.002 µM) was 0.358. The relative viability (NCI-H727; first compound 0.006325 µM) was 0.331, the relative viability (NCI-H727; first compound 0.02 µM) was 0.257 and the relative viability (NCI-H727; first compound 0.06325 µM) was 0.278. The relative viability (NCI-H727; first compound 0.2 µM) was 0.304, the relative viability (NCI-H838; first compound 0.002 µM) was 0.301 and the relative viability (NCI-H838; first compound 0.006325 µM) was 0.281. For the same compound, the relative viability (NCI-H838; first compound 0.02 µM) was 0.233, the relative viability (NCI-H838; first compound 0.06325 µM) was 0.189 and the relative viability (NCI-H838; first compound 0.2 µM) was 0.203. The relative viability (PC-3 [JPC-3]; first compound 0.002 µM) was 0.99, the relative viability (PC-3 [JPC-3]; first compound 0.006325 µM) was 0.945 and the relative viability (PC-3 [JPC-3]; first compound 0.02 µM) was 0.829. For the same compound, the relative viability (PC-3 [JPC-3]; first compound 0.06325 µM) was 0.863, the relative viability (PC-3 [JPC-3]; first compound 0.2 µM) was 0.25 and the relative viability (SW 1573; first compound 0.002 µM) was 0.506. It also gave a relative viability (SW 1573; first compound 0.006325 µM) of 0.532, a relative viability (SW 1573; first compound 0.02 µM) of 0.13 and a relative viability (SW 1573; first compound 0.06325 µM) of 0.0551. It also gave a relative viability (SW 1573; first compound 0.2 µM) of 0.0703, a relative viability (SW 900; first compound 0.002 µM) of 0.741 and a relative viability (SW 900; first compound 0.006325 µM) of 0.722. For the same compound, the relative viability (SW 900; first compound 0.02 µM) was 0.227, the relative viability (SW 900; first compound 0.06325 µM) was 0.0874 and the relative viability (SW 900; first compound 0.2 µM) was 0.109. The relative viability (UMC-11; first compound 0.002 µM) was 0.474, the relative viability (UMC-11; first compound 0.006325 µM) was 0.488 and the relative viability (UMC-11; first compound 0.02 µM) was 0.309. It also gave a relative viability (UMC-11; first compound 0.06325 µM) of 0.214 and a relative viability (UMC-11; first compound 0.2 µM) of 0.153.
